Measured values published in patent publication US20160175328A1, “COMPOSITIONS AND TREATMENTS OF HEART FAILURE IN NON-HUMAN MAMMAL ANIMALS” (CEVA SANTE ANIMALE SA, priority 2008, published 2016).
“Also recorded” adds a separate entry of the source.

Legend:
[1] = test system: dogs in hyperaldosteronemia; assay: Model for assessing the anti-aldosterone activity (urinary Na/K after aldosterone injection); type: in vivo, dog; details: for Urine flow rate: aldosterone treatment or aldosterone with spironolactone; for Urine Volume / log (Na × 10/K) / K / Na: N 15; for K / Na: urine; for reversal of the effect of aldosterone on the log ([Na+]urinary×10/[K+]urinary): first 6 hours and 12 hours after dosage
Protocol: They have been tattooed in advance for easy identification and situated in stainless steel individual boxes.
A preliminary study was performed in order to determining the ED80 value for the natriuretic effect of aldosterone on its own.
The dogs described above were allocated to different treatment groups (A, B, C, D, and E) and a rest period was left between treatments.
A negative control group A only received the pharmaceutical excipient. The positive control group B only received 3 μg/kg of aldosterone. […] 200 g food was then given immediately after treatment.
The samples were frozen and kept in the dark at approx. −80° C. […] Also, the urine was collected during the time periods ranging from T0-T6h; T6h-T12h and T12h-T24h.
After calibration and count, the quantity of aldosterone present in the sample was thus determined once counted.
The sodium and potassium contents in urines were determined using […]. […] According to this method 500 μL plasma were mixed with ethyl acetate (80/20, V/V) as solvents. […] The compounds and the internal standard (i.e. methyl-testosterone) were separated on a Kromasil C18 column.
A statistical analysis was performed with the STATGRAPHICS Plus version 4.1 software (Manugestics, Inc., Rockville, Md., U.S.A.). The results were presented such as averages±SD; p<0.05 is considered as significant.

[2] = Pharmacokinetic study with 22-14C spironolactone, rat; type: in vivo; details: rats, after 4 hour oral administration of spironolactone
[3] = test system: dogs affected by heart failure; assay: Clinical studies of spironolactone plus ACEI in dogs affected by heart failure; type: in vivo, dog; details: for reduction of the risk of mortality: oral spironolactone 2 mg/kg/day and a ACEI vs placebo and a ACEI; for Survival probability (absence of mortality): over 15 months (14-15 months), Placebo + ACEI 74%
Protocol: Multicentre, randomised, double-blind placebo-controlled clinical studies were conducted. An example of study concerned 221 dogs, the diagnosis of heart failure relying on persisting symptoms of cardiomegaly or cardiomyopathy after a first ACEI treatment. […] The 112-dog placebo group received a placebo in combination with an ACEI (for instance benazepril chlorhydrate in a dose of 0.25 mg/kg/day).
For gauging the effects of the treatment, both groups were examined five times, i.e., on the first day of treatment (D1), then on the 84th day (D84), […], 252nd day (D252) and 336th day (D336). This examination consisted of a clinical examination of the dogs, urine and blood analyses, and a radiograph. Moreover, an echocardiograph was taken on days D1, D168 and D336.
Also, the effects of the treatment were assessed on the symptoms such as cough and mobility, as well as on the prevention of symptoms such as dyspnoea, pulmonary edema, and tolerance to effort.

[4] = Plasmatic potassium (kalemia) measured during the clinical studies; type: in vivo, dog; details: for Low and transient hyperkalemia (5.9 to 6.4 mmol/L), cases: group on spironolactone
Protocol: The plasmatic potassium concentrations (mmol/L) were measured during the treatments. […] Only sporadic case of low or moderate hyperkalemia could be observed and these events were transient. Indeed, these hyperkalemia events could only be observed a couple of times during examinations, and some of them were present on day D1, before the beginning of the treatment.

[5] = Pharmacokinetic study with 22-14C spironolactone, monkey; type: in vivo; details: monkeys, after 4 hour oral administration of spironolactone
[6] = test system: patients affected by severe heart failure; details: 25 mg spironolactone with ACEI, loop diuretics, sometimes digoxin; 284 dead of 822; placebo group 46%; cited from earlier work
[7] = Pharmacokinetic study with 22-14C spironolactone, dog; type: in vivo; details: dogs, after 4 hour oral administration of spironolactone
[8] = group B, dosage 0, aldosterone 3 μg/kg
[9] = group C, spironolactone dosage 0.8, aldosterone 3 μg/kg
[10] = group D, spironolactone dosage 2, aldosterone 3 μg/kg
[11] = group E, spironolactone dosage 8, aldosterone 3 μg/kg

In the case of C[C@]12CCC(=O)C=C1CC[C@@H]1[C@@H]2[C@@H](O)C[C@]2(C=O)[C@@H](C(=O)CO)CC[C@@H]12 [Aldosterone], the “increase of the urinary levels of K” value ([1]; aldosterone on its own) was 25%, the “reduction of the elimination of Na” value ([1]; aldosterone on its own) was “approx. 65%” and the Urine flow rate [1] was “not significantly modified”. For the same compound, the “Urine Volume” value [1, 8] was 115 ± 109 mL, the “log (Na × 10/K)” value [1, 8] was 0.70 ± 0.22 and the K [1, 8] was 116.6 mmol/L. It also gave a Na [1, 8] of 56.3 ± 29.9 mmol/L.
For CC(=O)S[C@@H]1CC2=CC(=O)CC[C@]2(C)[C@H]2CC[C@@]3(C)[C@@H](CC[C@@]34CCC(=O)O4)[C@H]12 [Spironolactone, 7α-acetylthio-3-oxo-17α-pregn-4-ene-21,17-carbolactone], the plasma radioactivity percentage [2] was 66%, the morbidity-mortality rates ([3]; 14-15 month, spironolactone 2 mg/kg/day + ACEI, against 25%) was 11% and the mortality rates ([3]; after 14-15 months, spironolactone 2 mg/kg/day + ACEI, reference group 20%) was 6%. The survival probabilities ([3]; dogs treated as of stage I of heart failure, approx. 3.5 years, spironolactone 2 mg/kg/day + ACEI, against 53%) was 100%, the survival probabilities ([3]; duration of 3 years, spironolactone 2 mg/kg/day + ACEI, reference group 64%) was 80% and the “clinical symptoms (cough, mobility, dyspnoea, pulmonary edema, tolerance to effort, syncopes)” value ([3]; group of dogs on spironolactone vs control group) was “improved symptoms such as cough and mobility were observed”. The “reduction of the risk of mortality” value ([3]; over 3 years) was 59%, the “reduction of the risk of mortality” value ([3]; over 14-15 months) was 65% and the “Survival probability (absence of mortality)” value ([3]; spironolactone 2 mg/kg/day + ACEI, 109 dogs) was 91%. For the same compound, the “Survival probability (absence of mortality)” value ([3]; spironolactone 2 mg/kg/day + ACEI, 109 dogs, listed as spironolactone) was 91%, the ““survival” probability (absence of morbi-mortality)” value ([3]; over 15 months, spironolactone 2 mg/kg/day + ACEI, 109 dogs, Placebo + ACEI 67%) was 84% and the “Low and transient hyperkalemia (5.9 to 6.4 mmol/L), cases” value (“Low and transient hyperkalemia” below) ([4]; 2-month clinical study (4 analyses)) was 3. For the same compound, the “Low and transient hyperkalemia” value ([4]; 3-month clinical study (6 analyses)) was 5, the “Low and transient hyperkalemia” value ([4]; 12-month clinical study (5 analyses)) was 3 and the variation in kalemia ([4]; daily dose of spironolactone of 2 mg/kg/day, dogs) was “did not cause any variation in kalemia or only low transient variations in kalemia”. The “progression of average plasmatic potassium (kalemia), FIG. 9” value ([4]; spironolactone 2 mg/kg/day and ACEI vs placebo and ACEI) was “stable kalemia”, the ED50 ([1]; Canis lupus familiaris, read-out: ED50 (quantity of spironolactone to reach 50% of the maximum response), sigmoid Emax model, log ratio 0 to 6 hours) was 1.09 mg/kg and the Urine flow rate [1] was “not significantly modified”. The Emax-E0 ([1]; corresponded to 100% amplitude, E0 (control group) 0.527) was 0.5625, the “Urine Volume” value [1, 9] was 148 ± 154 mL and the “log (Na × 10/K)” value [1, 9] was 0.85 ± 0.24. For the same compound, the “Urine Volume” value [1, 10] was 162 ± 103 mL, the “log (Na × 10/K)” value [1, 10] was 1.02 ± 0.21 and the “Urine Volume” value [1, 11] was 190 ± 195 mL. The “log (Na × 10/K)” value [1, 11] was 1.14 ± 0.18, the “elimination (excretion) of Na” value ([1]; higher dose of spironolactone, 8 mg/kg) was “other increases in the elimination of Na were observed; also recorded: Further increases in Na excretion” and the “Emax (maximum possible effect of spironolactone)” value ([1]; log ([Na+]urinary×10/[K+]urinary), Emax model) was 1.089. The “ED50 (quantity of spironolactone to reach 50% of the maximum response)” value ([1]; sigmoid Emax model, log ratio 0 to 6 hours) was 1.08 ± 0.28 mg/kg, the natriuretic responses ([1]; spironolactone 0.8 mg/kg) was “no effect on certain dogs” and the natriuretic responses ([1]; spironolactone 2 mg/kg) was “completely reversed”. For the same compound, the “reversal of the effect of aldosterone on the log ([Na+]urinary×10/[K+]urinary)” value ([1]; spironolactone 2 mg/kg) was “complete reversal”, the “reversal of the effect of aldosterone on the log ([Na+]urinary×10/[K+]urinary)” value ([1]; spironolactone 8 mg/kg) was “complete reversal” and the Potassium excretion ([1]; spironolactone 0.8, 2 and 8 mg/kg with aldosterone) was “spared up to 2 mg per kg but not after that”. For the same compound, the “E(2mg/kg)−E0” value ([1]; spironolactone approx. 2 mg/kg) was 0.4933, the K [1, 9] was 91.8 mmol/L and the Na [1, 9] was 67.6 ± 49.3 mmol/L. For the same compound, the K [1, 10] was 74.2 mmol/L, the Na [1, 10] was 74.9 ± 40.2 mmol/L and the K [1, 11] was 88.9 mmol/L. For the same compound, the Na [1, 11] was 111.1 ± 67.9 mmol/L, the plasma radioactivity percentage [5] was 33% and the “dead (mortality) in the spironolactone group” value [6] was 35%. For the same compound, the plasma radioactivity percentage [7] was 76%.
